Results: patent US20030170702A1, “Methods for polysome distribution analysis of mRNA's” (priority 2002, published 2003)

Experiments:
[1] = biological target: T1, MultiScribe Reverse Transcriptase (Moloney murine leukemia virus, UniProt P03355); assay: Inhibition of reverse transcription (RT) by heparin and sucrose, 32P-labeled primer extension; assay type: biochemical
T1 construct: MultiScribe Reverse Transcriptase; purchased ABI (Applied Biosystems Inc)
Description: (§1) We discovered that heparin and sucrose inhibit reverse transcription (RT) and polymerase chain reaction (PCR). To determine the level of heparin or sucrose that inhibits these reactions, RT and PCR reactions were performed at varying heparin and sucrose concentrations. Each reaction mixture contained 25 μL 2× SYBR Green PCR Master Mix (Applied Biosystems Inc), 0.25 μL MultiScribe Reverse Transcriptase at 50U/μl (ABI), 0.4 μL RNase Inhibitor at 20U/μl (ABI), 25 nM forward primer, 25 nM reverse primer, 10 μl RNA template, and enough water to bring the final reaction volume to 50 μl. For the RT reactions, E coli RNase P RNA was used as the RNA template, and 1.25 μl of each primer from a stock solution of 1 μM was used, giving a final primer concentration of 25 nM. The RNase P primers were RNASEP-F19 (5′-[…]-3′, SEQ ID NO: 1) and RNASEP-R278 (5′-[…]-3′, SEQ ID NO: 2). All primers were purchased from Integrated DNA Technologies, Inc. The 2× SYBR Green Master Mix contains Taq polymerase, nucleotides, buffer, and magnesium. These reaction mixtures were assembled in a Micro Amp Optical 96 well reaction plate (ABI).
To examine the reverse transcription efficiency in the presence of sucrose and heparin, the reverse primer specific for RNase P RNA was ^32P labeled, and used as the only source of reverse primer. The radiolabeled primer was extended using reverse transcription during an incubation at 48° C. for 30 minutes. The resultant DNA was isolated and separated on a 6% denaturing gel. After soaking and drying the gel, the ^32P labeled reverse transcription product was quantitated using the Cyclone Storage Phosphor System (Packard) and Optiquant Image Analysis Software (Packard). This software reports the intensity of a selected band on the gel in units called Digital Light Units (DLU). The number of DLUs is listed in the “Raw Activity” column in Table 1. The amounts of sucrose and heparin in the samples as well as the final concentration of sucrose (percent weight per volume, % w/v) and heparin in the RT reaction are also listed. The highest amount represents 30% sucrose (average of the amount in a typical sucrose gradient) and 1 mg/mL heparin (amount of heparin in a typical sucrose gradient fraction). The amount of reverse transcription activity (“% RT” column) is expressed as a percent of the activity in the presence of differing amounts of sucrose or heparin relative to the activity in the absence of these substances.

Taq polymerase = biological target: T2, Taq polymerase (Thermus aquaticus, UniProt P19821); assay: Inhibition of PCR by heparin and sucrose, SYBR Green quantitation of amplicon; assay type: biochemical; conditions: for concentration that inhibits PCR efficiency: final concentration in PCR reaction, 35 cycles
T2 construct: purchased Applied Biosystems Inc
T2 sequence (P19821 whole entry): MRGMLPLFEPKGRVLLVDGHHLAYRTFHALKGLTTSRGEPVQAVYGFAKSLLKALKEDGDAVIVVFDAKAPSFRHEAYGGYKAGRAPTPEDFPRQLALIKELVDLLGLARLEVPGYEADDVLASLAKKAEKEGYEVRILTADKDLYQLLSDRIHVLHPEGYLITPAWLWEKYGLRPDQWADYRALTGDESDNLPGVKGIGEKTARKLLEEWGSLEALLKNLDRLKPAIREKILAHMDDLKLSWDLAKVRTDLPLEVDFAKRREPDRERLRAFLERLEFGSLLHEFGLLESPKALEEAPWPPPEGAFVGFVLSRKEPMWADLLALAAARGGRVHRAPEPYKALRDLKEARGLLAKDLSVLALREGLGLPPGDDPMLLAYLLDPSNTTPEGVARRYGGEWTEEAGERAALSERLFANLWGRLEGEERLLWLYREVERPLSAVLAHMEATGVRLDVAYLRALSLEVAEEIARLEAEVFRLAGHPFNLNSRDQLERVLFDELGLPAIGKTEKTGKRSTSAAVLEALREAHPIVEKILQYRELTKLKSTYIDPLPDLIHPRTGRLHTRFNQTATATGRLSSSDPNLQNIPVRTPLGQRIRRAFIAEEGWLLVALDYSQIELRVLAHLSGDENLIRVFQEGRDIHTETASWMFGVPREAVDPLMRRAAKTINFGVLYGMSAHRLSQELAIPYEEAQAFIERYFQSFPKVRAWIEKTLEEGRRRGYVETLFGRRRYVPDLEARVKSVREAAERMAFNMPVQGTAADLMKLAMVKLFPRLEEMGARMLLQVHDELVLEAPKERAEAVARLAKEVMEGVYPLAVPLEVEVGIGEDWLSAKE
Description: as §1
PCR reactions were also performed in the presence of varying amounts of heparin and sucrose. The plasmid pJA2′, which contains the DNA copy of the E coli RNase P RNA, was used as the template in these PCR reactions to generate both experimental and standard curves. Thirty-five cycles of PCR were performed in which the reaction mixture was incubated at 95° C. for 15 seconds for denaturation and 60° C. for one minute for annealing and extension. The reaction mixtures in the 96 well plate were loaded in the Gene Amp 5700 Sequence Detection System (ABI). This machine quantitates the amount of PCR product made after each cycle. A standard curve is generated with each reaction and used to calculate the quantity of the PCR product or amplicon for each experimental reaction. For the “Raw Activity” column in Table 2 the units are ng of DNA.

[2] = sucrose 0.001 % W/V final in RT reaction (0.04 % in sample)
[3] = sucrose 0.004 % W/V final in RT reaction (0.12 % in sample)
[4] = sucrose 0.014 % W/V final in RT reaction (0.37 % in sample)
[5] = sucrose 0.044 % W/V final in RT reaction (1.11 % in sample)
[6] = sucrose 0.133 % W/V final in RT reaction (3.33 % in sample)
[7] = sucrose 0.4 % W/V final in RT reaction (10 % in sample)
[8] = sucrose 1.2 % W/V final in RT reaction (30 % in sample)
[9] = sucrose 0.001 % w/v final in PCR reaction (0.04 % in sample)
[10] = sucrose 0.004 % w/v final in PCR reaction (0.12 % in sample)
[11] = sucrose 0.014 % w/v final in PCR reaction (0.37 % in sample)
[12] = sucrose 0.044 % w/v final in PCR reaction (1.11 % in sample)
[13] = sucrose 0.133 % w/v final in PCR reaction (3.33 % in sample)
[14] = sucrose 0.4 % w/v final in PCR reaction (10 % in sample)
[15] = sucrose 1.2 % w/v final in PCR reaction (30 % in sample)
[16] = heparin 0.002 ng/μL final in RT reaction (0.06 in sample)
[17] = heparin 0.012 ng/μL final in RT reaction (0.32 in sample)
[18] = heparin 0.064 ng/μL final in RT reaction (1.6 in sample)
[19] = heparin 0.32 ng/μL final in RT reaction (8 in sample)
[20] = heparin 1.6 ng/μL final in RT reaction (40 in sample)
[21] = heparin 8 ng/μL final in RT reaction (200 in sample)
[22] = heparin 40 ng/μL final in RT reaction (1000 in sample)
[23] = heparin 0.002 ng/μL final in PCR reaction (0.06 in sample)
[24] = heparin 0.012 ng/μL final in PCR reaction (0.32 in sample)
[25] = heparin 0.064 ng/μL final in PCR reaction (1.6 in sample)
[26] = heparin 0.32 ng/μL final in PCR reaction (8 in sample)
[27] = heparin 1.6 ng/μL final in PCR reaction (40 in sample)
[28] = heparin 8 ng/μL final in PCR reaction (200 in sample)
[29] = heparin 40 ng/μL final in PCR reaction (1000 in sample)

OC[C@H]1O[C@@](CO)(O[C@H]2O[C@H](CO)[C@@H](O)[C@H](O)[C@H]2O)[C@@H](O)[C@@H]1O [Sucrose, sucrose]
% RT (reverse transcription activity relative to activity in absence of substance) [1, 2]: 133.445%
Raw Activity (RT product band intensity) [1, 2]: 7.94 DLU
% RT (reverse transcription activity relative to activity in absence of substance) [1, 3]: 158.487%
Raw Activity (RT product band intensity) [1, 3]: 9.43 DLU
% RT (reverse transcription activity relative to activity in absence of substance) [1, 4]: 171.933%
Raw Activity (RT product band intensity) [1, 4]: 10.23 DLU
% RT (reverse transcription activity relative to activity in absence of substance) [1, 5]: 159.832%
Raw Activity (RT product band intensity) [1, 5]: 9.51 DLU
% RT (reverse transcription activity relative to activity in absence of substance) [1, 6]: 155.798%
Raw Activity (RT product band intensity) [1, 6]: 9.27 DLU
% RT (reverse transcription activity relative to activity in absence of substance) [1, 7]: 119.328%
Raw Activity (RT product band intensity) [1, 7]: 7.1 DLU
% RT (reverse transcription activity relative to activity in absence of substance) [1, 8]: 96.1345%
Raw Activity (RT product band intensity) [1, 8]: 5.72 DLU
effect on the efficiency of reverse transcription ([1]; up to 1.2 % W/V sucrose final, 48° C. for 30 minutes): does not inhibit
concentration that inhibits PCR efficiency (Taq polymerase): 0.004 % w/v
% PCR (Taq polymerase; [9]): 102%
Raw Activity (quantity of PCR product) (Taq polymerase; [9]): 10.2 ng of DNA
% PCR (Taq polymerase; [10]): 66.6%
Raw Activity (quantity of PCR product) (Taq polymerase; [10]): 6.66 ng of DNA
% PCR (Taq polymerase; [11]): 67%
Raw Activity (quantity of PCR product) (Taq polymerase; [11]): 6.7 ng of DNA
% PCR (Taq polymerase; [12]): 61%
Raw Activity (quantity of PCR product) (Taq polymerase; [12]): 6.1 ng of DNA
% PCR (Taq polymerase; [13]): 65.7%
Raw Activity (quantity of PCR product) (Taq polymerase; [13]): 6.57 ng of DNA
% PCR (Taq polymerase; [14]): 66.7%
Raw Activity (quantity of PCR product) (Taq polymerase; [14]): 6.67 ng of DNA
% PCR (Taq polymerase; [15]): 72.6%
Raw Activity (quantity of PCR product) (Taq polymerase; [15]): 7.26 ng of DNA

heparin
concentration that significantly inhibits reverse transcription efficiency ([1]; final concentration in RT reaction): ≥ 0.32 ng/µL
% RT (reverse transcription activity relative to activity in absence of substance) [1, 16]: 108.01%
Raw Activity (RT product band intensity) [1, 16]: 10.79 DLU
% RT (reverse transcription activity relative to activity in absence of substance) [1, 17]: 101.8%
Raw Activity (RT product band intensity) [1, 17]: 10.17 DLU
% RT (reverse transcription activity relative to activity in absence of substance) [1, 18]: 93.293%
Raw Activity (RT product band intensity) [1, 18]: 9.32 DLU
% RT (reverse transcription activity relative to activity in absence of substance) [1, 19]: 72.573%
Raw Activity (RT product band intensity) [1, 19]: 7.25 DLU
% RT (reverse transcription activity relative to activity in absence of substance) [1, 20]: 3.6036%
Raw Activity (RT product band intensity) [1, 20]: 0.36 DLU
% RT (reverse transcription activity relative to activity in absence of substance) [1, 21]: 0.6006%
Raw Activity (RT product band intensity) [1, 21]: 0.06 DLU
% RT (reverse transcription activity relative to activity in absence of substance) [1, 22]: 0.8008%
Raw Activity (RT product band intensity) [1, 22]: 0.08 DLU
concentration that inhibits PCR efficiency (Taq polymerase): 0.012 ng/µL
% PCR (Taq polymerase; [23]): 107.69%
Raw Activity (quantity of PCR product) (Taq polymerase; [23]): 0.002 11.2 ng of DNA
% PCR (Taq polymerase; [24]): 75.962%
Raw Activity (quantity of PCR product) (Taq polymerase; [24]): 7.9 ng of DNA
% PCR (Taq polymerase; [25]): 29.808%
Raw Activity (quantity of PCR product) (Taq polymerase; [25]): 3.1 ng of DNA
% PCR (Taq polymerase; [26]): 0%
Raw Activity (quantity of PCR product) (Taq polymerase; [26]): 0 ng of DNA
% PCR (Taq polymerase; [27]): 0%
Raw Activity (quantity of PCR product) (Taq polymerase; [27]): 0 ng of DNA
% PCR (Taq polymerase; [28]): 0%
Raw Activity (quantity of PCR product) (Taq polymerase; [28]): 0 ng of DNA
% PCR (Taq polymerase; [29]): 0%
Raw Activity (quantity of PCR product) (Taq polymerase; [29]): 0 ng of DNA
